This note sets out measurements from patent US20230372498A1, “PLK1 SELECTIVE DEGRADATION INDUCING COMPOUND” (UPPTHERA, priority 2020, published 2023).

The experiment has as its target T1, PLK1 (Homo sapiens, UniProt P53350).
T1 construct: endogenous in cells; host or cells: HeLa
In words: PLK1 protein degradation in HeLa cells, Western blotting (PLK1/GAPDH ratio). As to conditions: 6 hours compound incubation; for DC50: measured only if the grade of Dmax is A or B; for Dmax: thymidine block and release, 10 points three-fold from 3 μM, PLK1 to GAPDH ratio, read-out: Dmax. Type of experiment: cell-based. A digest of the protocol:
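PLK1 level measured by Western blot as PLK1/GAPDH in HeLa lysates (15 μg protein per lane). Cells were blocked with 2 mM thymidine 24 h, released 4 h, and exposed 6 h to compound, 10 concentrations, 3-fold steps, top 3 μM.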
For orientation: In western blotting, separated proteins are transferred to a membrane and probed.

T1 sequence (P53350 whole entry): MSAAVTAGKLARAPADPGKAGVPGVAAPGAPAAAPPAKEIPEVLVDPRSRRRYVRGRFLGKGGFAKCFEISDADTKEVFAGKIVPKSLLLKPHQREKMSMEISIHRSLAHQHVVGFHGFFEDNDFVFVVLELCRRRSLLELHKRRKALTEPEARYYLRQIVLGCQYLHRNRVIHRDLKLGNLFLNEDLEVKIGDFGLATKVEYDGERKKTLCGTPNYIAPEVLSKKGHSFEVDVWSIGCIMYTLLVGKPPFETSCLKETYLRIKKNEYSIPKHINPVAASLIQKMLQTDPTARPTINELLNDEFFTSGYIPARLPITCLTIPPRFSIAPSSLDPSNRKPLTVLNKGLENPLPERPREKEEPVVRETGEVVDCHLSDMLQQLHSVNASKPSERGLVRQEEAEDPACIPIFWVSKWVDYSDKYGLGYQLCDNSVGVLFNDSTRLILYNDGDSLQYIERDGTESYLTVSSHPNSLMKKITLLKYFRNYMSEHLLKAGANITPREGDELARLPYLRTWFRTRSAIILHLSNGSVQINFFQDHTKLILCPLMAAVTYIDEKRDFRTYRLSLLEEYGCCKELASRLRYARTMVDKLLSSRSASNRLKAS

Turning to `COc1cc(C(=O)N[C@@H]2CCN(C(=O)CCCCN3CCN(c4cccc5c4C(=O)N(C4CCC(=O)NC4=O)C5=O)CC3)C2)c(F)cc1Nc1ncc2c(n1)N(C1CCCC1)CC(F)(F)C(=O)N2C` (stereo partly drawn) [Compound 134, 4-((9-cyclopentyl-7,7-difluoro-5-methyl-6-oxo-6,7,8,9-tetrahydro-5H-pyrimido[4,5-b][1,4]diazepin-2-yl)amino)-N-((3R)-1-(5-(4-(2-(2,6-dioxopiperidin-3-yl)-1,3-dioxoisoindolin-4-yl)piperazin-1-yl)pentanoyl)pyrrolidin-3-yl)-2-fluoro-5-methoxybenzamide], the DC50 was at most 50 nM and the Dmax is at least 80%.

With `CN1C(=O)C(F)(F)CN(C2CCCC2)c2nc(Nc3cc(F)c(C(=O)NC4CCN(CCOCCOCCNc5cccc6c5C(=O)N(C5CCC(=O)NC5=O)C6=O)CC4)cc3OCCO)ncc21` (stereo not drawn) [Example 97, 4-((9-cyclopentyl-7,7-difluoro-5-methyl-6-oxo-6,7,8,9-tetrahydro-5H-pyrimido[4,5-b][1,4]diazepin-2-yl)amino)-N-(1-(2-(2-(2-((2-(2,6-dioxopiperidin-3-yl)-1,3-dioxoisoindolin-4-yl)amino)ethoxy)ethoxy)ethyl)piperidin-4-yl)-2-fluoro-5-(2-hydroxyethoxy)benzamide], the Dmax is below 60%.

Consider `CN1C(=O)C(F)(F)CN(C2CCCC2)c2nc(Nc3cc(F)c(C(=O)NC4CCN(CCOCCOCCNc5cccc6c5C(=O)N(C5CCC(=O)NC5=O)C6=O)CC4)cc3OC3CCC3)ncc21` (stereo not drawn) [Example 93, 5-cyclobutoxy-4-((9-cyclopentyl-7,7-difluoro-5-methyl-6-oxo-6,7,8,9-tetrahydro-5H-pyrimido[4,5-b][1,4]diazepin-2-yl)amino)-N-(1-(2-(2-(2-((2-(2,6-dioxopiperidin-3-yl)-1,3-dioxoisoindolin-4-yl)amino)ethoxy)ethoxy)ethyl)piperidin-4-yl)-2-fluorobenzamide], for which the DC50 was at most 50 nM and the Dmax was at least 80%.

Turning to `COc1cc(C(=O)NC2CCN(C(=O)CCCNc3cccc4c3C(=O)N(C3CCC(=O)NC3=O)C4=O)CC2)c(F)cc1Nc1ncc2c(n1)N(C1CCCC1)CC(F)(F)C(=O)N2C` (stereo not drawn) [Compound 39, 4-((9-cyclopentyl-7,7-difluoro-5-methyl-6-oxo-6,7,8,9-tetrahydro-5H-pyrimido[4,5-b][1,4]diazepin-2-yl)amino)-N-(1-(4-((2-(2,6-dioxopiperidin-3-yl)-1,3-dioxoisoindolin-4-yl)amino)butanoyl)piperidin-4-yl)-2-fluoro-5-methoxybenzamide], the DC50 was at most 50 nM and the Dmax is at least 80%.

`COc1cc(C(=O)NC2CCN(C(=O)N3CCN(c4cccc5c4C(=O)N(C4CCC(=O)NC4=O)C5=O)CC3)CC2)c(F)cc1Nc1ncc2c(n1)N(C1CCCC1)CC(F)(F)C(=O)N2C` (stereo not drawn) [Compound 69, 4-((9-cyclopentyl-7,7-difluoro-5-methyl-6-oxo-6,7,8,9-tetrahydro-5H-pyrimido[4,5-b][1,4]diazepin-2-yl)amino)-N-(1-(4-(2-(2,6-dioxopiperidin-3-yl)-1,3-dioxoisoindolin-4-yl)piperazine-1-carbonyl)piperidin-4-yl)-2-fluoro-5-methoxybenzamide]: the DC50 was at most 50 nM and the Dmax was at least 80%.

With `COc1cc(C(=O)N[C@H]2CCN(C(=O)CCCC(=O)N3CC4(C3)CN(c3cccc5c3C(=O)N(C3CCC(=O)NC3=O)C5=O)C4)C2)c(F)cc1Nc1ncc2c(n1)N(C1CCCC1)CC(F)(F)C(=O)N2C` (stereo partly drawn) [Compound 149, 4-((9-cyclopentyl-7,7-difluoro-5-methyl-6-oxo-6,7,8,9-tetrahydro-5H-pyrimido[4,5-b][1,4]diazepin-2-yl)amino)-N-((3S)-1-(5-(6-(2-(2,6-dioxopiperidin-3-yl)-1,3-dioxoisoindolin-4-yl)-2,6-diazaspiro[3.3]heptan-2-yl)-5-oxopentanoyl)pyrrolidin-3-yl)-2-fluoro-5-methoxybenzamide], the DC50 is at most 500 nM and the Dmax is 60 to 80%.

As for `COc1cc(C(=O)NC2CCN(Cc3cn(CCOCCNc4cccc5c4C(=O)N(C4CCC(=O)NC4=O)C5=O)nn3)CC2)c(F)cc1Nc1ncc2c(n1)N(C1CCCC1)CC(F)(F)C(=O)N2C` (stereo not drawn) [Compound 44, 4-((9-cyclopentyl-7,7-difluoro-5-methyl-6-oxo-6,7,8,9-tetrahydro-5H-pyrimido[4,5-b][1,4]diazepin-2-yl)amino)-N-(1-((1-(2-(2-((2-(2,6-dioxopiperidin-3-yl)-1,3-dioxoisoindolin-4-yl)amino)ethoxy)ethyl)-1H-1,2,3-triazol-4-yl)methyl)piperidin-4-yl)-2-fluoro-5-methoxybenzamide], the DC50 is at most 50 nM and the Dmax was at least 80%.

Regarding `COc1cc(C(=O)NC2CCN(C(=O)COCCOCCOCCOCCNc3cccc4c3C(=O)N(C3CCC(=O)NC3=O)C4=O)CC2)c(F)cc1Nc1ncc2c(n1)N(C1CCCC1)CC(F)(F)C(=O)N2C` (stereo not drawn) [Compound 34, 4-((9-cyclopentyl-7,7-difluoro-5-methyl-6-oxo-6,7,8,9-tetrahydro-5H-pyrimido[4,5-b][1,4]diazepin-2-yl)amino)-N-(1-(14-((2-(2,6-dioxopiperidin-3-yl)-1,3-dioxoisoindolin-4-yl)amino)-3,6,9,12-tetraoxatetradecanoyl)piperidin-4-yl)-2-fluoro-5-methoxybenzamide], the DC50 is at most 50 nM and the Dmax was at least 80%.

Turning to `COc1cc(C(=O)NCC2CCCN(CCOCCNc3cccc4c3C(=O)N(C3CCC(=O)NC3=O)C4=O)C2)c(F)cc1Nc1ncc2c(n1)N(C1CCCC1)CC(F)(F)C(=O)N2C` (stereo not drawn) [Compound 125, 4-((9-cyclopentyl-7,7-difluoro-5-methyl-6-oxo-6,7,8,9-tetrahydro-5H-pyrimido[4,5-b][1,4]diazepin-2-yl)amino)-N-((1-(2-(2-((2-(2,6-dioxopiperidin-3-yl)-1,3-dioxoisoindolin-4-yl)amino)ethoxy)ethyl)piperidin-3-yl)methyl)-2-fluoro-5-methoxybenzamide], the DC50 was at most 50 nM and the Dmax was at least 80%.

Turning to `COc1cc(C(=O)NC2CCN(CCCCCCCNc3cccc4c3C(=O)N(C3CCC(=O)NC3=O)C4=O)CC2)c(F)cc1Nc1ncc2c(n1)N(C1CCCC1)CC(F)(F)C(=O)N2C` (stereo not drawn) [Compound 11, 4-((9-cyclopentyl-7,7-difluoro-5-methyl-6-oxo-6,7,8,9-tetrahydro-5H-pyrimido[4,5-b][1,4]diazepin-2-yl)amino)-N-(1-(7-((2-(2,6-dioxopiperidin-3-yl)-1,3-dioxoisoindolin-4-yl)amino)heptyl)piperidin-4-yl)-2-fluoro-5-methoxybenzamide], the DC50 was at most 500 nM and the Dmax was 60 to 80%.

Regarding `COc1cc(C(=O)NC2CCN(CCOCCOCCOCCOCCOCCOCCOCCNC(=O)COc3cccc4c3C(=O)N(C3CCC(=O)NC3=O)C4=O)CC2)c(F)cc1Nc1ncc2c(n1)N(C1CCCC1)CC(F)(F)C(=O)N2C` (stereo not drawn) [Compound 58, 4-((9-cyclopentyl-7,7-difluoro-5-methyl-6-oxo-6,7,8,9-tetrahydro-5H-pyrimido[4,5-b][1,4]diazepin-2-yl)amino)-N-(1-(1-((2-(2,6-dioxopiperidin-3-yl)-1,3-dioxoisoindolin-4-yl)oxy)-2-oxo-6,9,12,15,18,21,24-heptaoxa-3-azahexacosan-26-yl)piperidin-4-yl)-2-fluoro-5-methoxybenzamide], the Dmax was below 60%.

Take `COc1cc(C(=O)NC2CCN(CCOCCOCCOCCOCC(=O)Nc3cccc4c3C(=O)N(C3CCC(=O)NC3=O)C4=O)CC2)c(F)cc1Nc1ncc2c(n1)N(C1CCCC1)CC(F)(F)C(=O)N2C` (stereo not drawn) [Compound 27, 14-(4-(4-((9-cyclopentyl-7,7-difluoro-5-methyl-6-oxo-6,7,8,9-tetrahydro-5H-pyrimido[4,5-b][1,4]diazepin-2-yl)amino)-2-fluoro-5-methoxybenzamido)piperidin-1-yl)-N-(2-(2,6-dioxopiperidin-3-yl)-1,3-dioxoisoindolin-4-yl)-3,6,9,12-tetraoxatetradecanamide]: the DC50 is at most 500 nM and the Dmax lay in the range of 60 to 80%.

Take `COc1cc(C(=O)N[C@H]2CCN(C(=O)CCNC(=O)CNc3cccc4c3C(=O)N(C3CCC(=O)NC3=O)C4=O)C2)c(F)cc1Nc1ncc2c(n1)N(C1CCCC1)CC(F)(F)C(=O)N2C` (stereo partly drawn) [Compound 113, 4-((9-cyclopentyl-7,7-difluoro-5-methyl-6-oxo-6,7,8,9-tetrahydro-5H-pyrimido[4,5-b][1,4]diazepin-2-yl)amino)-N-((3S)-1-(3-(2-((2-(2,6-dioxopiperidin-3-yl)-1,3-dioxoisoindolin-4-yl)amino)acetamido)propanoyl)pyrrolidin-3-yl)-2-fluoro-5-methoxybenzamide]: the Dmax was below 60%.

Take `COc1cc(C(=O)N[C@H]2CCN(C(=O)CCC(=O)N3CCN(c4cccc5c4C(=O)N(C4CCC(=O)NC4=O)C5=O)CC3)C2)c(F)cc1Nc1ncc2c(n1)N(C1CCCC1)CC(F)(F)C(=O)N2C` (stereo partly drawn) [Compound 140, 4-((9-cyclopentyl-7,7-difluoro-5-methyl-6-oxo-6,7,8,9-tetrahydro-5H-pyrimido[4,5-b][1,4]diazepin-2-yl)amino)-N-((3S)-1-(4-(4-(2-(2,6-dioxopiperidin-3-yl)-1,3-dioxoisoindolin-4-yl)piperazin-1-yl)-4-oxobutanoyl)pyrrolidin-3-yl)-2-fluoro-5-methoxybenzamide]: the DC50 was at most 50 nM and the Dmax was at least 80%.

Take `COc1cc(C(=O)NC2CC3(C2)CN(C(=O)CCNc2cccc4c2C(=O)N(C2CCC(=O)NC2=O)C4=O)C3)c(F)cc1Nc1ncc2c(n1)N(C1CCCC1)CC(F)(F)C(=O)N2C` (stereo not drawn) [Compound 159, 4-((9-cyclopentyl-7,7-difluoro-5-methyl-6-oxo-6,7,8,9-tetrahydro-5H-pyrimido[4,5-b][1,4]diazepin-2-yl)amino)-N-(2-(3-((2-(2,6-dioxopiperidin-3-yl)-1,3-dioxoisoindolin-4-yl)amino)propanoyl)-2-azaspiro[3.3]heptan-6-yl)-2-fluoro-5-methoxybenzamide]: the DC50 is at most 50 nM and the Dmax was at least 80%.

A word on the DC50: it is the midpoint of the concentration-degradation curve. As a reminder, the Dmax is the greatest extent of degradation seen.
